Assay results reported in ChEMBL document CHEMBL1151973, “Rhazinilam and quebrachamine derivatives from Yunnan Kopsia arborea” (J Nat Prod, 2009).

How the values were obtained:
[1] = tested on: HT-29; assay: Cytotoxicity against human HT-29 cells after 96 hrs by microplate reader assay; type: functional, cell-based; conditions: HT-29, 96 h
[2] = tested on: A549; assay: Cytotoxicity against human A549 cells after 96 hrs by microplate reader assay; type: functional, cell-based; conditions: A549, 96 h

SMILES	IC50 [1]	IC50 [2]
CC[C@@]12CCCN(CCc3c([nH]c4ccccc34)CC1)C2	30 µM	> 30 µM
CC[C@@]12CCCN(CCc3c(n(COC)c4ccccc34)CC1)C2 [KOPSIYUNNANINE D]	30 µM	> 30 µM
CCOCc1cc2c3n1CCC[C@]3(CC)CCC(=O)Nc1ccccc1-2	6.39 µM	7.44 µM
CC[C@]12CCCn3c(COC)cc(c31)-c1ccccc1NC(=O)CC2	4.67 µM	5.38 µM
CC[C@]12CCCn3c(CO)cc(c31)-c1ccccc1NC(=O)CC2	8.89 µM	8.21 µM
CC(=O)O[C@@]12CO[C@@H]1C[C@H](O)[C@@]1(C)C(=O)[C@H](O)C3=C(C)[C@@H](OC(=O)[C@H](O)[C@@H](NC(=O)OC(C)(C)C)c4ccccc4)C[C@@](O)([C@@H](OC(=O)c4ccccc4)[C@H]21)C3(C)C [DOCETAXEL]	0.000334 µM	0.000495 µM
CC[C@]12CCCn3ccc(c31)-c1ccccc1NC(=O)CC2 [RHAZINILAM]	0.35 µM	0.35 µM
